{
  "source": "patent US6033913A",
  "about": "“Detection of ligand Interaction with polymeric material” (New York University, priority 1997, dated 2000)",
  "key": {"concanavalin A [1]": {"target": "T1, concanavalin A (Canavalia ensiformis, UniProt P02866)", "experiment": "biochemical", "assay_type": "binding", "set-up": "purchased Sigma, St. Louis, Mo", "details": "for tension change on removal of divalent cations: buffer 1 exchanged for buffer 2 (without MnCl2 and CaCl2, both removed together)", "source_text": "(§1) Referring again to FIGS. 4 and 5: With a sample strip S mounted between the tips of the arms 148, 168, and reference solution L flowing in the well 210, mechanochemical testing of the sample S is ready to begin. Testing itself consists of two stages. In the first (preparative) stage, the strip is stretched until a maximum spring constant of the strip is obtained, and then is allowed to relax under isometric conditions until a constant level of isometric tension is reached. Isometric condition herein means keeping a fixed distance between tips of the arms 148 and 146. In the second stage relaxed strip is brought into contact with ligand solution and ligand-induced changes of the isometric tension and spring constant are measured.\nAt the testing stage, ligand-induced changes in F and κ are measured after an exchange in the flow cell of reference solution for that containing ligands. These parameters by themselves can be used to detect binding. However, they also allow estimation of a practically important parameter: ligand-induced strain, εL=(L-L1)/L0, where L1 is the length of the sample in the ligand solution when no force is applied. This can also be calculated by the formula\nLigands are added at the moment indicated by arrows in FIGS. 12, 14, and 16.\nA strip of concanavalin A, (Sigma, St. Louis, Mo.) was prepared as described in Example 1 for hexokinase, mounted on the arms 148, 146 and extended by 1.2% in buffer 1 (10 mM HEPES buffer, pH=7.5, containing 0.1 M NaCl and 0.1 mM MnCl2 and CaCl2 each). After relaxation solutions with 0.25 mM, 1.25 mM, 5 mM and 10 mM of methyl-α-D-mannopyranoside (MP) on the same buffer 1 were introduced into the well 210 at the moments indicated by arrows in the FIG. 14."}, "yeast hexokinase": {"system": "yeast hexokinase", "experiment": "Mechanochemical test of yeast hexokinase film with glucose (isometric tension and compliance)", "assay_type": "binding", "source_text": "as §1\nSpring constant is measured by applying small deformations to the strip with an amplitude AL much smaller than (L-L0). These deformations cause tension oscillations with amplitude of ΔF. […]\nAt the testing stage, ligand-induced changes in F and κ are measured after an exchange in the flow cell of reference solution for that containing ligands. […] This can also be calculated by the formula\nA film of yeast hexokinase (Sigma Chemical Company, St. Louis, Mo.) was prepared. […] Changes in elasticity and isometric tension in the sample were measured at the moments indicated by arrows and changes in tension and in modulus resulted from such exchange of solutions were measured. […]"}, "concanavalin A [2]": {"target": "T1, concanavalin A", "details": "as compared to MP; Biochem. Biophys. Acta, 165:398 (1968); cited from earlier work"}},
  "data": [
    {"smiles": "CO[C@H]1O[C@H](CO)[C@@H](O)[C@H](O)[C@@H]1O", "note": "[MP, methyl-α-D-mannopyranoside]", "values": [
      {"measurement": "Kd", "setting": "concanavalin A [1]", "result": 300, "unit": "µM"},
      {"measurement": "tension change on ligand addition without divalent cations", "setting": "concanavalin A [1]; 10 mM MP in buffer 2", "result": "reversible drop of tension by ΔF2, similar to the effect, ΔF1, in buffer 1"},
      {"measurement": "isometric tension change on ligand addition", "setting": "concanavalin A [1]; buffer 1, 0.25, 1.25, 5 and 10 mM MP", "result": "reduce progressively the isometric tension"},
      {"measurement": "reversibility of MP-induced decrease in tension", "setting": "concanavalin A [1]; return to buffer 1", "result": "completely reversible"}
    ]},
    {"smiles": "[Ca+2].[Cl-].[Cl-]", "note": "[CaC12, CaCl2]", "values": [
      {"measurement": "tension change on removal of divalent cations", "setting": "concanavalin A [1]", "result": "considerable decrease of tension"}
    ]},
    {"smiles": "O=C(O)CN(CCN(CC(=O)O)CC(=O)O)CC(=O)O", "note": "[EDTA]", "values": [
      {"measurement": "tension change on addition of EDTA", "setting": "concanavalin A [1]", "result": "reduces tension still more"},
      {"measurement": "tension change on introduction of EDTA-free buffer 2 after EDTA", "setting": "concanavalin A [1]", "result": "does not affect tension"}
    ]},
    {"smiles": "[Cl][Mn][Cl]", "note": "[MnCl2]", "values": [
      {"measurement": "tension change on removal of divalent cations", "setting": "concanavalin A [1]", "result": "considerable decrease of tension"}
    ]},
    {"smiles": "OC[C@H]1OC(O)[C@H](O)[C@@H](O)[C@@H]1O", "note": "(stereo partly drawn) [glucose]", "values": [
      {"measurement": "inverse tension changes against inverse glucose concentration", "setting": "yeast hexokinase; Lineweaver-Burk plot, FIG. 13", "result": "linear relationship"},
      {"measurement": "changes in isometric tension and compliance", "setting": "yeast hexokinase; hexokinase film strip, varying glucose concentration, 10 mM HEPES, pH=7.5, 0.1 NaCl, extended 2.8%", "result": "large but reversible changes"},
      {"measurement": "ability of binding concanavalin A compared to MP", "setting": "concanavalin A [2]", "result": "much lower ability of binding concanavalin A"},
      {"measurement": "tension change on introduction of glucose", "setting": "concanavalin A [1]; 5 mM glucose", "result": "very small tension changes"}
    ]}
  ]
}
